According to ChEMBL document CHEMBL4507302, “Data for DCP probe TP-020” (2021):

Tests used:
[1] = biological target: Myosin-IIIb (Homo sapiens) (UniProt Q8WXR4); settings: Compound concentration 1000.0 nM
[2] = biological target: Tyrosine-protein kinase ABL1 (Homo sapiens) (UniProt P00519); settings: Compound concentration 1000.0 nM
[3] = test system: Phosphatidylinositol 4,5-bisphosphate 3-kinase catalytic subunit alpha isoform (Homo sapiens), P42336 [M1043I]; settings: Compound concentration 1000.0 nM
[4] = biological target: Serine/threonine-protein kinase PknB (Mycobacterium tuberculosis) (UniProt P9WI81); settings: Compound concentration 1000.0 nM
[5] = biological target: Casein kinase II subunit alpha' (Homo sapiens) (UniProt P19784); settings: Compound concentration 1000.0 nM
[6] = biological target: Proto-oncogene tyrosine-protein kinase receptor Ret (Homo sapiens) (UniProt P07949); settings: Compound concentration 1000.0 nM
[7] = biological target: Ephrin type-A receptor 5 (Homo sapiens) (UniProt P54756); settings: Compound concentration 1000.0 nM
[8] = biological target: Sodium-dependent noradrenaline transporter (Homo sapiens) (UniProt P23975); settings: Compound concentration 10.0 uM
[9] = biological target: Serine/threonine-protein kinase 32A (Homo sapiens) (UniProt Q8WU08); settings: Compound concentration 1000.0 nM
[10] = biological target: Mitogen-activated protein kinase kinase kinase kinase 1 (Homo sapiens) (UniProt Q92918); settings: Compound concentration 1000.0 nM
[11] = test system: Tyrosine-protein kinase ABL1 (Homo sapiens), P00519 [F317I]; settings: Compound concentration 1000.0 nM
[12] = test system: Mast/stem cell growth factor receptor Kit (Homo sapiens), P10721 [V559D,V654A]; settings: Compound concentration 1000.0 nM
[13] = biological target: Mitogen-activated protein kinase kinase kinase 20 (Homo sapiens) (UniProt Q9NYL2); settings: Compound concentration 1000.0 nM
[14] = biological target: Dual specificity protein kinase CLK1 (Homo sapiens) (UniProt P49759); settings: Compound concentration 1000.0 nM
[15] = biological target: Dual specificity protein kinase CLK2 (Homo sapiens) (UniProt P49760); settings: Compound concentration 1000.0 nM
[16] = biological target: Serine/threonine-protein kinase D1 (Homo sapiens) (UniProt Q15139); settings: Compound concentration 1000.0 nM
[17] = biological target: Serine/threonine-protein kinase RIO2 (Homo sapiens) (UniProt Q9BVS4); settings: Compound concentration 1000.0 nM
[18] = biological target: Calcium/calmodulin-dependent protein kinase type II subunit gamma (Homo sapiens) (UniProt Q13555); settings: Compound concentration 1000.0 nM
[19] = biological target: 5-hydroxytryptamine receptor 2B (Homo sapiens) (UniProt P41595); settings: Compound concentration 10.0 uM
[20] = biological target: Tyrosine-protein kinase Srms (Homo sapiens) (UniProt Q9H3Y6); settings: Compound concentration 1000.0 nM
[21] = biological target: Cyclin-dependent kinase 4 (Homo sapiens) (UniProt P11802); settings: Compound concentration 1000.0 nM
[22] = test system: Tyrosine-protein kinase ABL1 (Homo sapiens), P00519 [Q252H]; settings: Compound concentration 1000.0 nM
[23] = biological target: Testis-specific serine/threonine-protein kinase 3 (Homo sapiens) (UniProt Q96PN8); settings: Compound concentration 1000.0 nM
[24] = biological target: Serine/threonine-protein kinase TBK1 (Homo sapiens) (UniProt Q9UHD2); settings: Compound concentration 1000.0 nM
[25] = biological target: Serine/threonine-protein kinase 16 (Homo sapiens) (UniProt O75716); settings: Compound concentration 1000.0 nM
[26] = biological target: Leukocyte tyrosine kinase receptor (Homo sapiens) (UniProt P29376); settings: Compound concentration 1000.0 nM
[27] = biological target: Serine/threonine-protein kinase DCLK1 (Homo sapiens) (UniProt O15075); settings: Compound concentration 1000.0 nM
[28] = biological target: Focal adhesion kinase 1 (Homo sapiens) (UniProt Q05397); settings: Compound concentration 1000.0 nM
[29] = test system: Phosphatidylinositol 4,5-bisphosphate 3-kinase catalytic subunit alpha isoform (Homo sapiens), P42336 [E545K]; settings: Compound concentration 1000.0 nM
[30] = biological target: Ankyrin repeat and protein kinase domain-containing protein 1 (Homo sapiens) (UniProt Q8NFD2); settings: Compound concentration 1000.0 nM
[31] = biological target: RAC-alpha serine/threonine-protein kinase (Homo sapiens) (UniProt P31749); settings: Compound concentration 1000.0 nM
[32] = biological target: ALK tyrosine kinase receptor (Homo sapiens) (UniProt Q9UM73); settings: Compound concentration 1000.0 nM
[33] = biological target: Serine/threonine-protein kinase PAK 4 (Homo sapiens) (UniProt O96013); settings: Compound concentration 1000.0 nM
[34] = biological target: Cyclin-dependent kinase 17 (Homo sapiens) (UniProt Q00537); settings: Compound concentration 1000.0 nM
[35] = biological target: Tyrosine-protein kinase HCK (Homo sapiens) (UniProt P08631); settings: Compound concentration 1000.0 nM
[36] = biological target: Serine/threonine-protein kinase WNK3 (Homo sapiens) (UniProt Q9BYP7); settings: Compound concentration 1000.0 nM
[37] = biological target: Mitogen-activated protein kinase kinase kinase 4 (Homo sapiens) (UniProt Q9Y6R4); settings: Compound concentration 1000.0 nM
[38] = biological target: Phosphatidylinositol 3-kinase catalytic subunit type 3 (Homo sapiens) (UniProt Q8NEB9); settings: Compound concentration 1000.0 nM
[39] = biological target: Serine/threonine-protein kinase Chk1 (Homo sapiens) (UniProt O14757); settings: Compound concentration 1000.0 nM
[40] = biological target: MAP kinase-interacting serine/threonine-protein kinase 2 (Homo sapiens) (UniProt Q9HBH9); settings: Compound concentration 1000.0 nM
[41] = biological target: 5'-AMP-activated protein kinase catalytic subunit alpha-1 (Homo sapiens) (UniProt Q13131); settings: Compound concentration 1000.0 nM
[42] = biological target: Serine/threonine-protein kinase TAO2 (Homo sapiens) (UniProt Q9UL54); settings: Compound concentration 1000.0 nM
[43] = biological target: Mitotic checkpoint serine/threonine-protein kinase BUB1 (Homo sapiens) (UniProt O43683); settings: Compound concentration 1000.0 nM
[44] = test system: Proto-oncogene tyrosine-protein kinase receptor Ret (Homo sapiens), P07949 [V804L]; settings: Compound concentration 1000.0 nM
[45] = test system: Tyrosine-protein kinase ABL1 (Homo sapiens), P00519 [F317I]; settings: Compound concentration 1000.0 nM; remark: listed apart in the source

5'-AMP-activated protein kinase catalytic subunit alpha-1 (Homo sapiens), sequence (Q13131 whole entry, looked up): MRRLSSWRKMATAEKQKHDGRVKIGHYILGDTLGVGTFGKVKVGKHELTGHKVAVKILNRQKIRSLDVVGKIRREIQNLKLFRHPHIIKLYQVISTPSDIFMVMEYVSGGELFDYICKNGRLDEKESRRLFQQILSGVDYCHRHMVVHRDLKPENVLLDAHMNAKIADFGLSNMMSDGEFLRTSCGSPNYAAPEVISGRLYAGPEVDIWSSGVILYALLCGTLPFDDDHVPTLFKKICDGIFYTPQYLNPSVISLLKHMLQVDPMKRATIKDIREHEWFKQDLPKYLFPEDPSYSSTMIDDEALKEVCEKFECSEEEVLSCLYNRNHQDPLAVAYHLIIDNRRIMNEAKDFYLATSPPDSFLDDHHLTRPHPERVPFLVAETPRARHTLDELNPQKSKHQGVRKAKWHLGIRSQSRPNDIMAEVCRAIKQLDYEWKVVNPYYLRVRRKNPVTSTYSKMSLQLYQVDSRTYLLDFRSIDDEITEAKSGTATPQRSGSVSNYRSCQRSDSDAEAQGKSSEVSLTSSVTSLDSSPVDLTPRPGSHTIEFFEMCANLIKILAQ
Phosphatidylinositol 4,5-bisphosphate 3-kinase catalytic subunit alpha isoform (Homo sapiens), P42336 [M1043I], sequence (P42336 whole entry M1043I, canonical isoform): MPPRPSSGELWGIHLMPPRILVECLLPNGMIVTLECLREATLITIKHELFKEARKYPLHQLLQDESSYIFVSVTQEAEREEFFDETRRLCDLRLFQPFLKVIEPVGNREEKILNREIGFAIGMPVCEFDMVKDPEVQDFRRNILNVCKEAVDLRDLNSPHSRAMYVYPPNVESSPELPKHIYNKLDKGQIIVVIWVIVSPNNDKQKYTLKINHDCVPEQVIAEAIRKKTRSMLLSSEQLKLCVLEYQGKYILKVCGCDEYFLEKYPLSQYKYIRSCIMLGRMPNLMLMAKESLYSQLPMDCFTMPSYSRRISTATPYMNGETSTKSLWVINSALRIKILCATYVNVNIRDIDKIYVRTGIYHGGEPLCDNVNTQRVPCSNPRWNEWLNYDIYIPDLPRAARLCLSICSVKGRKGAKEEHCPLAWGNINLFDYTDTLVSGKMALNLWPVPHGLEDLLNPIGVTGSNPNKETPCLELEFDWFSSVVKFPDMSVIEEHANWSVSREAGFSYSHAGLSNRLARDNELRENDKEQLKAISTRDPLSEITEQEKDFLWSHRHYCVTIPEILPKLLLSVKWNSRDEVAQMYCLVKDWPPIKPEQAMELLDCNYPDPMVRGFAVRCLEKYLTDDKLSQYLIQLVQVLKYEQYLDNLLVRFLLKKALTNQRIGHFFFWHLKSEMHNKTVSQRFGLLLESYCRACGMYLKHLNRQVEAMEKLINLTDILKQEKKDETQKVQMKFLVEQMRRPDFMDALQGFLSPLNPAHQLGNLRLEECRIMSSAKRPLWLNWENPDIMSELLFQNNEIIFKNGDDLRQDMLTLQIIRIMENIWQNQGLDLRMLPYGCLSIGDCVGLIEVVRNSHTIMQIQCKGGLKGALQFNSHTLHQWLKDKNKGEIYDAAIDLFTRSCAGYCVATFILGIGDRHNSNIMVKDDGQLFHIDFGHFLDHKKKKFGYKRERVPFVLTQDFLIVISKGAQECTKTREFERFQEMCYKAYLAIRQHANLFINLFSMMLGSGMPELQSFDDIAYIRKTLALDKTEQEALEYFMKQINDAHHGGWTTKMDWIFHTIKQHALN
Casein kinase II subunit alpha' (Homo sapiens), sequence (P19784 whole entry, looked up): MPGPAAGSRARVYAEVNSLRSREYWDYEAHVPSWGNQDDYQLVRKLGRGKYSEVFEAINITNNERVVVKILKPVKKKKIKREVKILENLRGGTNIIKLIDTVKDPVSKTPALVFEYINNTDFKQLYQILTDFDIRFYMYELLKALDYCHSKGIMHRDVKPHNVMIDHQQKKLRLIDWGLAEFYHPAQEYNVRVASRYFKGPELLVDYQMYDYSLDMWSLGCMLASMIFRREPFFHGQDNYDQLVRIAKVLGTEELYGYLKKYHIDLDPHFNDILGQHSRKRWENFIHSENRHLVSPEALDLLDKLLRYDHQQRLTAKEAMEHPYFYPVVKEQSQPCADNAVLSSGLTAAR
Serine/threonine-protein kinase 32A (Homo sapiens), sequence (Q8WU08 whole entry): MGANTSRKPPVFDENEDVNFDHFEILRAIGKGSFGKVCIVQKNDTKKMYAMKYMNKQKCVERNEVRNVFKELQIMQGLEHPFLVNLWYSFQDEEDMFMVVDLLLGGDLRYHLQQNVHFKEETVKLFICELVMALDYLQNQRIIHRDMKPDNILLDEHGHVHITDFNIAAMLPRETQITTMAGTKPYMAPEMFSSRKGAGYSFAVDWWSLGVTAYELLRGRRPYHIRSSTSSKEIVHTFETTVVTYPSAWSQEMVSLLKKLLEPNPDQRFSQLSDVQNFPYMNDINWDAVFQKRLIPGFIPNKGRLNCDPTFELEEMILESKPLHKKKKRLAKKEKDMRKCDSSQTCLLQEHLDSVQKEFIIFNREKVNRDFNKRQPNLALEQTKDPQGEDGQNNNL
Serine/threonine-protein kinase Chk1 (Homo sapiens), sequence (O14757 whole entry): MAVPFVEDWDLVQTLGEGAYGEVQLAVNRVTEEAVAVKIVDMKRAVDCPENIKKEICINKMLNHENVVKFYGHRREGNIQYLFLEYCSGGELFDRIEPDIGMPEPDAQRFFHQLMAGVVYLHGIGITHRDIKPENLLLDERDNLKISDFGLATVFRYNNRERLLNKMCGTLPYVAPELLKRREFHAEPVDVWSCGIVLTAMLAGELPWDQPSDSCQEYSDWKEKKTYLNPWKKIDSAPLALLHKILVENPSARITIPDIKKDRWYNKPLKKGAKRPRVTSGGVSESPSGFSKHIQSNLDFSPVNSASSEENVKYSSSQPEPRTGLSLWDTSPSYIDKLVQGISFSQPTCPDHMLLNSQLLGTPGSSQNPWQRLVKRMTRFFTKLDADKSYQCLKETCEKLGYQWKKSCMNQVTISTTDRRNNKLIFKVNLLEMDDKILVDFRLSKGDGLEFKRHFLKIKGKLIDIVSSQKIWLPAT
Serine/threonine-protein kinase WNK3 (Homo sapiens), sequence (Q9BYP7 whole entry): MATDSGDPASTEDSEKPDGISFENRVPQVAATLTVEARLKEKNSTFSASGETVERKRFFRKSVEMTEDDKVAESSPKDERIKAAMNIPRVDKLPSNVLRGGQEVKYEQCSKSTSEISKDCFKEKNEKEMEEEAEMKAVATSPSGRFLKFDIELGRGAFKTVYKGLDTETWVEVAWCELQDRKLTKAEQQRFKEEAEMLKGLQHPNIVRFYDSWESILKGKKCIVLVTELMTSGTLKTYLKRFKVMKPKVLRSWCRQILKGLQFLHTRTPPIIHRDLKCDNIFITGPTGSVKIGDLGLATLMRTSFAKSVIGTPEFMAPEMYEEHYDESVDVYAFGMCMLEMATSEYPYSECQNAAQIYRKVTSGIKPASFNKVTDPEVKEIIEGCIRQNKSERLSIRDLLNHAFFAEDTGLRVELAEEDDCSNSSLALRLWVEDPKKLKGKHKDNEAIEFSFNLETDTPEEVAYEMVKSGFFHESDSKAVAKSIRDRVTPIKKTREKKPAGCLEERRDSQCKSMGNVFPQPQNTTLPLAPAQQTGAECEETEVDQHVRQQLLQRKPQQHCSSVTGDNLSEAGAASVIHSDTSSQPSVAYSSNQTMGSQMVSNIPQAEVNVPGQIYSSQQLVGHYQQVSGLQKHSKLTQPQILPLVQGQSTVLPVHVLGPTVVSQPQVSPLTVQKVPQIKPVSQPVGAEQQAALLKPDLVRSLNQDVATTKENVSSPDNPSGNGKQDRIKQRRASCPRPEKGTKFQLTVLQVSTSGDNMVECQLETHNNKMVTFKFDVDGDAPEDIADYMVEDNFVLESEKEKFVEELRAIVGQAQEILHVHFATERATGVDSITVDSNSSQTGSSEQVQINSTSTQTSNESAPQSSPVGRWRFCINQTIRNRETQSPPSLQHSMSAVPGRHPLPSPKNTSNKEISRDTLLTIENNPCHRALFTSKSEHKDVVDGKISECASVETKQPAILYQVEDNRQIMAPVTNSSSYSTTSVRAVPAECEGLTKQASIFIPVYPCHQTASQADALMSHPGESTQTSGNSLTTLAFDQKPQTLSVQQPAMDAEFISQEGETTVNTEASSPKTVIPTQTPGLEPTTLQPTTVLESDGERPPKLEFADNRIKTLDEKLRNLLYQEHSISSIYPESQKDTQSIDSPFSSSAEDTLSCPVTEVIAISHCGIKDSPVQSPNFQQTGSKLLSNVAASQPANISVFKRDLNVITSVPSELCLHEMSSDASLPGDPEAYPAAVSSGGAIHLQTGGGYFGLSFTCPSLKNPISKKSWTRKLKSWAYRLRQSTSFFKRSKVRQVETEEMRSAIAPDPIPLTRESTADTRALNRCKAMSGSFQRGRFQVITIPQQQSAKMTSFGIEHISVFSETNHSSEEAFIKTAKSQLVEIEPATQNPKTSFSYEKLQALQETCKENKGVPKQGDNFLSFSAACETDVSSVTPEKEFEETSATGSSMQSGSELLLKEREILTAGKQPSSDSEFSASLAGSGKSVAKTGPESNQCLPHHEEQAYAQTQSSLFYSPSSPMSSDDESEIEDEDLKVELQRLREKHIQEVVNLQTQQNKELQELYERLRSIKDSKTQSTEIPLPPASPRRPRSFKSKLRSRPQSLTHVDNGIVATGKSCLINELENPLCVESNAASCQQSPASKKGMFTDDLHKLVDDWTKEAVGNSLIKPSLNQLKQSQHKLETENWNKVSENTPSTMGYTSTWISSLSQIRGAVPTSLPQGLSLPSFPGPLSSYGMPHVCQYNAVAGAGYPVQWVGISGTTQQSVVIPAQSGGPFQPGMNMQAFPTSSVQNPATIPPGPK
Serine/threonine-protein kinase 16 (Homo sapiens), sequence (O75716 whole entry): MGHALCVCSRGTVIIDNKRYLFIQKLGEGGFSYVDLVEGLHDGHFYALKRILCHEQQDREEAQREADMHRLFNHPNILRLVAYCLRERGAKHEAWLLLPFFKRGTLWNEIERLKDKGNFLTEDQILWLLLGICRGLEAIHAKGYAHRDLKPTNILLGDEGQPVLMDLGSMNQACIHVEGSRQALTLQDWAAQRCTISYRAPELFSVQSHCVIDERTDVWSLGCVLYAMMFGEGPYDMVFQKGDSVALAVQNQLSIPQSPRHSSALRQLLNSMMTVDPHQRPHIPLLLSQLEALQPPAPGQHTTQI

Nc1cnc(N2CCc3cc(S(=O)(=O)Nc4c(F)cc(Cl)cc4F)cc(N4CCCC4=O)c32)nc1
inactive: residual activity [1] 100% | residual activity [2] 100% | residual activity [3] 100% | residual activity [4] 96% | residual activity [5] 98% | residual activity [6] 89% | residual activity [7] 100% | inhibition [8] 18.2% | residual activity [9] 80% | residual activity [10] 83% | residual activity [11] 100% | residual activity [12] 100% | residual activity [13] 95% | residual activity [14] 85% | residual activity [15] 100% | residual activity [16] 83% | residual activity [17] 89% | residual activity [18] 100% | inhibition [19] 12.9% | residual activity [20] 88% | residual activity [21] 97% | residual activity [22] 100% | residual activity [23] 100% | residual activity [24] 85% | residual activity [25] 100% | residual activity [26] 100% | residual activity [27] 100% | residual activity [28] 99% | residual activity [29] 100% | residual activity [30] 100% | residual activity [31] 100% | residual activity [32] 100% | residual activity [33] 89% | residual activity [34] 100% | residual activity [35] 100% | residual activity [36] 100% | residual activity [37] 85% | residual activity [38] 100% | residual activity [39] 95% | residual activity [40] 100% | residual activity [41] 100% | residual activity [42] 78% | residual activity [43] 100% | residual activity [44] 99% | residual activity [45] 100%

Cn1nc(C(F)(F)F)cc1-c1cnc(N2CCc3cc(S(=O)(=O)Nc4c(F)cc(Cl)cc4F)cc(N4CCCC4=O)c32)nc1 [TP-020]
inactive: residual activity [1] 100% | residual activity [2] 73% | residual activity [3] 89% | residual activity [4] 100% | residual activity [5] 84% | residual activity [6] 87% | residual activity [7] 94% | inhibition [8] 5.69% | residual activity [9] 78% | residual activity [10] 100% | residual activity [11] 71% | residual activity [12] 89% | residual activity [13] 98% | residual activity [14] 87% | residual activity [15] 86% | residual activity [16] 80% | residual activity [17] 89% | residual activity [18] 95% | inhibition [19] 24.7% | residual activity [20] 100% | residual activity [21] 81% | residual activity [22] 85% | residual activity [23] 94% | residual activity [24] 95% | residual activity [25] 92% | residual activity [26] 94% | residual activity [27] 93% | residual activity [28] 98% | residual activity [29] 82% | residual activity [30] 96% | residual activity [31] 100% | residual activity [32] 80% | residual activity [33] 100% | residual activity [34] 100% | residual activity [35] 95% | residual activity [36] 97% | residual activity [37] 100% | residual activity [38] 78% | residual activity [39] 100% | residual activity [40] 94% | residual activity [41] 98% | residual activity [42] 100% | residual activity [43] 87% | residual activity [44] 100% | residual activity [45] 85%
